As a reminder, the Ki is a measure of affinity in units of concentration, obtained from inhibition or displacement. As a reminder, the GI50 is the concentration at which growth is held to half of that of the control. Read a high GI50 as less potent growth inhibition.

SMILES strings stand for the structures. Entries after “also recorded” stand apart in the source; their conditions may differ.

The target in assay [1] is T1, human recombinant MAO B (Homo sapiens, UniProt P27338).
T1 sequence (P27338 1-520): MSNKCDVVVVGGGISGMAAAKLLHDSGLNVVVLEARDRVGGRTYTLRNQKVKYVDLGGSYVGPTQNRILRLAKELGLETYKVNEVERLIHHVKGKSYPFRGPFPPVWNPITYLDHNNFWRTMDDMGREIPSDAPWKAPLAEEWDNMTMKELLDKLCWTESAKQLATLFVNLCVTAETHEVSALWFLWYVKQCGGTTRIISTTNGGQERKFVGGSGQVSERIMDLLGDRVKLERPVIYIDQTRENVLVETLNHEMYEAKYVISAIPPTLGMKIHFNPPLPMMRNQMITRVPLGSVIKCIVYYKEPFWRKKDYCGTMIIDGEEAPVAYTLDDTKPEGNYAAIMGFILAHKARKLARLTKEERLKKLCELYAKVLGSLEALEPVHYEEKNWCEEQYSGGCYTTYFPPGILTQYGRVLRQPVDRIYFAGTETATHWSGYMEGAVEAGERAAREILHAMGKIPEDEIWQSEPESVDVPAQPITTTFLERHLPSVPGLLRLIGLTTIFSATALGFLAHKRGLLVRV
Kind of assay: MAO B inhibition, kynuramine assay (4-hydroxyquinoline fluorescence). Particulars: MAO B Ki, human recombinant MAO B; kynuramine 10 μM; from slope of Vo/VI vs compound concentration (1.25–40 μM); mean ± S.D.

Assay [2] has as its target T2, human recombinant MAO A (Homo sapiens, UniProt P21397).
T2 sequence (P21397 1-527): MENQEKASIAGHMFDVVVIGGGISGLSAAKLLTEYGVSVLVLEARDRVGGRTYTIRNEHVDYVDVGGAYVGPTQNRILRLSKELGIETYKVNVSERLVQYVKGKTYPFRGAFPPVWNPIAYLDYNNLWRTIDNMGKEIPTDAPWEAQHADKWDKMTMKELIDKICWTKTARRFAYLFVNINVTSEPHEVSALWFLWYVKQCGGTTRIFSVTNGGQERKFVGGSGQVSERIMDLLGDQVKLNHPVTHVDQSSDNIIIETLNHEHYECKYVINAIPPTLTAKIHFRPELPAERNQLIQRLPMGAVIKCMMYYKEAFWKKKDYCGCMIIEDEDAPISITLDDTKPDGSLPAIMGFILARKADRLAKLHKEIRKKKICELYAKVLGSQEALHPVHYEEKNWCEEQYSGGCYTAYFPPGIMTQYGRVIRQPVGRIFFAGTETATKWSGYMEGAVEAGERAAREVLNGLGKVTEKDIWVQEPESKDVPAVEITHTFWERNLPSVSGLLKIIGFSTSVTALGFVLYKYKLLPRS
Kind of assay: MAO A inhibition, kynuramine assay (4-hydroxyquinoline fluorescence). To be noted: MAO A Ki, human recombinant MAO A; kynuramine 10 μM; from slope of Vo/VI vs compound concentration (1.25–40 μM); mean ± S.D.

For assay [3], the target named is T1, human recombinant MAO B. Further details: purchased Merk s.r.l; (Italy); host or cells: baculovirus-infected BT1 cells; method as in PMID 21858471. To be noted: previous study ref 35; cited from earlier work.
Assay [4] relates to LN-229 glioblastoma cell line. Nature of the assay: Inhibition growth assay, Trypan blue exclusion. It counts as cell-based, human. Particulars: Homo sapiens, LN-229, 48 h, LN-229, 48 h of incubation; mean ± SD of five independent experiments in duplicate. An excerpt:
On this basis, we investigated the antiproliferative effect of compounds 1–7 on LN-229, a human glioblastoma cell line. Compound 1 and the well-known antitumor drug doxorubicin were taken as references. […] The data in Table 3 support the lack of cytotoxicity of compound 1.
The LN-229 (human glioblastoma) was purchased from the American Type Culture Collection (ATCC) and cultured in DMEM (D2902, Sigma Chemical Co., St. Louis, MO, USA) supplemented with 3.5 g/L of glucose and 5% heat-inactivated fetal calf serum (FCS) (F7524, Sigma Chemical Co.), respectively. A total of 100 U/mL of penicillin, 100 μg/mL of streptomycin, and 0.25 μg/mL of amphotericin B (Sigma Chemical Co.) were added to the medium. Cells were cultured at 37 °C in a humidified atmosphere incubator containing 5% carbon dioxide in air.
Cells (3–6 × 10^4/well) were seeded into a 24-well cell culture plate; after 24 h, different concentrations of the test compounds or reference drug were added. After 48 h of incubation in standard conditions, the cell viability was determined by using a Trypan blue exclusion assay. Briefly, cells were detached by using a […] and 0.3 mM EDTA solution in PBS and stained with 0.1% Trypan blue solution in PBS. Unstained viable cells were immediately counted in a Burker chamber. The percentage of viable cells was calculated with respect to the untreated control culture. […] The goodness of the fit was expressed by the r^2 coefficient, and the best fit report included the analysis of variance corrected for the mean of the observations with the p values (p < 0.005 for all the tested compounds). Data are the means ± SD of at least five independent experiments in duplicate.

The target in assay [5] is T3, human VAP-1 (Homo sapiens, UniProt Q16853).
T3 sequence (Q16853 1-763): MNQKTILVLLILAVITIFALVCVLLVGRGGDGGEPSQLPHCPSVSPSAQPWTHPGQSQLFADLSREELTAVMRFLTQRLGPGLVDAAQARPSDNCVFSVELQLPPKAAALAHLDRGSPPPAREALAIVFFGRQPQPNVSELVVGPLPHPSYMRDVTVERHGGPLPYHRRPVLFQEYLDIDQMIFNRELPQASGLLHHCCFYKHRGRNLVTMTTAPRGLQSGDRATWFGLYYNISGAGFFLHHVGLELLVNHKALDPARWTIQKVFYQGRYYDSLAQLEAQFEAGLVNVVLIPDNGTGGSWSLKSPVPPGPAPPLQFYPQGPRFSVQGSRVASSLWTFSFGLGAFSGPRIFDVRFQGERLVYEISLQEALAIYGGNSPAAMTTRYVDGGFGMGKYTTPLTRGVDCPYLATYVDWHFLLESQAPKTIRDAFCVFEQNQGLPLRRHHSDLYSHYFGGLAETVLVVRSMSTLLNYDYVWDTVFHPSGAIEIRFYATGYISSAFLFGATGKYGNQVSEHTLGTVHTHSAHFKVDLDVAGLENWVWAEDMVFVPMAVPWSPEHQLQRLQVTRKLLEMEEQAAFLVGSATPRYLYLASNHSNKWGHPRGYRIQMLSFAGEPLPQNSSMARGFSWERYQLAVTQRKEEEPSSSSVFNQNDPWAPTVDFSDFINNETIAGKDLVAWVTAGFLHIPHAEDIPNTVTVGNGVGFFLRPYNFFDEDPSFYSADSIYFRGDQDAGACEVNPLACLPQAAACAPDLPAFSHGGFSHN
Set-up: Biothie Therapies Cor; (Turku, Finland), gift; method as in PMID 21858471, PMID 30829081. To be noted: previous studies ref 35, 40; cited from earlier work.

Assay [6] deals with T4, murine SMOX (Mus musculus, UniProt Q99K82). Set-up: made in house; host or cells: E. coli BL21 DE3. To be noted: previous studies ref 35, 40; cited from earlier work.
Assay [7] has as its system MAO. Nature of the assay: Test of compounds as potential MAO substrates, Amplex Red/horseradish peroxidase coupled method. It counts as biochemical, human. Particulars: up to a 50 μM concentration. How it is done:
Before evaluating the potential MAO inhibitory capability of derivatives 2–7, kinetic experiments were performed to assay their behaviors as potential MAO substrates by using the Amplex Red/horseradish peroxidase coupled method, which detects the hydrogen peroxide produced by the amine oxidase enzyme activity in the presence of an amine substrate. […] Thus, for the subsequent inhibition studies, an assay method that used kynuramine as the MAO substrate and detected the production of 4-hydroxyquinoline (formed from the aldehyde reaction product) was applied.
Except for compound 4, no significant interference of the other polyamine analogs with the preliminary calibration curves was observed. […] The evaluations of the effects of compounds 1–7 on the MAO activity were performed by using a kynuramine assay due to the interferences of compound 4 with the Amplex Red method.

Assay [8] addresses T3, human VAP-1. Kind of assay: VAP-1 amine oxidase activity, Amplex Red/horseradish peroxidase assay, benzylamine as substrate. Particulars: up to a 50 μM concentration.
Assay [9] deals with T4, murine SMOX. Nature of the assay: SMOX amine oxidase activity, Amplex Red/horseradish peroxidase assay, spermine as substrate. Particulars: up to a 50 μM concentration.

T4 sequence (Q99K82 whole entry): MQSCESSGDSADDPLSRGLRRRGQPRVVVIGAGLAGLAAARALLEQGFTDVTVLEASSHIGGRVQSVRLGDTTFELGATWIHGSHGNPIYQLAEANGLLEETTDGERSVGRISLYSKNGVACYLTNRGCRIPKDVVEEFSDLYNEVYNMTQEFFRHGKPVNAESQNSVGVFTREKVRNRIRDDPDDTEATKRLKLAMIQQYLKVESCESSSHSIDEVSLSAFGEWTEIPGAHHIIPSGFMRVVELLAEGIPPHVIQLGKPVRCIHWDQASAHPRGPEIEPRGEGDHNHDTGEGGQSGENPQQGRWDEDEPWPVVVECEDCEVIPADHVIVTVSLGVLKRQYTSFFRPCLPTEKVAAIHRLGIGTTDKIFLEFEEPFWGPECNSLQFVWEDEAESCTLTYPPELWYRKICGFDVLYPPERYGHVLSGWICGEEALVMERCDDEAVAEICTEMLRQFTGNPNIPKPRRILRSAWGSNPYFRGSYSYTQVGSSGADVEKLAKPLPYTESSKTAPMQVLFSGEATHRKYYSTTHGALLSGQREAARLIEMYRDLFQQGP

Turning to `COc1ccccc1CNCCCCCCN1CCC(CCC2CCN(CCCCCCNCc3ccccc3OC)CC2)CC1` [Compound 2], the Ki was determined as 330 ± 30 µM in assay [1] and 247 ± 42 µM in [2]. Moreover, the “Mode of inhibition of MAO B” value in assay [3] is reported as “mainly competitive/mixed; also recorded: reversible mixed-type”. Further, the GI50 in assay [4] turned out to be 4.6 ± 1.1 µM. Besides, the “Inhibition of VAP-1” value in assay [5] is “poor inhibitor”. The “Inhibition of SMOX” value in assay [6] is “poor inhibitor”. Moreover, in [7], the “Behaviour as MAO substrate” value is recorded as “did not act as substrates”.
Take `COc1ccccc1CNCCCCCC(=O)N1CCC(CCC2CCN(C(=O)CCCCCNCc3ccccc3OC)CC2)CC1` [Compound 3]: the results for the inhibitory constant (Ki) in [1] and in [2] were 19 ± 2 µM and 70 ± 7 µM, respectively. For the same molecule, it took 2.2 ± 0.9 µM to inhibit growth in [4] by half (GI50). The “Behaviour as VAP-1 substrate” value in assay [8] is reported as “not substrates”. Also, the “Behaviour as MAO substrate” value in [7] is “did not act as substrates”. For the same molecule, the “Behaviour as SMOX substrate” value in [9] is given as “not substrates”.

The values are drawn from article PMC10490032, “From Monoamine Oxidase Inhibition to Antiproliferative Activity: New Biological Perspectives for Polyamine Analogs” (Molecules, 2023).
